# Data reported in PubChem BioAssay (NCI).
#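 The concentration for 50% growth inhibition is given as GI50. TGI: concentration producing complete growth inhibition.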
# How the values were obtained:
# Test in all cases: NCI anticancer screen, dose series, 384-well format
# [1] = tested on: HOP-62 NSCLC
# [2] = tested on: KM12 colon
# [3] = tested on: PC-3 prostate
# [4] = tested on: DU-145 prostate
# [5] = tested on: A498 renal
# [6] = tested on: NCI-H23 lung
# [7] = tested on: EKVX NSCLC
# [8] = tested on: NCI-H460 NSCLC
# [9] = tested on: NCI-H322M lung
# [10] = tested on: HCT-116 colon
# [11] = tested on: SK-OV-3 ovarian
# [12] = tested on: SK-MEL-28 melanoma
# [13] = tested on: HS 578T breast
# [14] = tested on: HOP-92 NSCLC
# [15] = tested on: SF-268 CNS
# [16] = tested on: UACC-257 melanoma
# [17] = tested on: UACC-62 melanoma
# [18] = tested on: MALME-3M melanoma
# [19] = tested on: MDA-MB-435 melanoma
# [20] = tested on: IGROV1 ovarian
# [21] = tested on: SF-539 CNS
# [22] = tested on: NCI-H226 lung
# [23] = tested on: RPMI-8226 leukemia
# [24] = tested on: OVCAR-8 ovarian
# [25] = tested on: MOLT-4 leukemia
# [26] = tested on: HL-60(TB) leukemia
# [27] = tested on: HCT-15 colon
# [28] = tested on: SF-295 CNS
# [29] = tested on: COLO 205 colon
# [30] = tested on: MDA-MB-468 breast
# [31] = tested on: SR leukemia
# [32] = tested on: CAKI-1 renal
# [33] = tested on: ACHN renal
# [34] = tested on: BT-549 breast
# [35] = tested on: HT29 colon
# [36] = tested on: T-47D breast
# [37] = tested on: SN12C renal
# [38] = tested on: LOX IMVI melanoma
# [39] = tested on: SNB-75 CNS
# [40] = tested on: MCF7 breast
# [41] = tested on: U251 glioblastoma
# [42] = tested on: OVCAR-4 ovarian
# [43] = tested on: NCI-H522 lung
# [44] = tested on: RXF 393 renal
# [45] = tested on: OVCAR-5 ovarian
# [46] = tested on: OVCAR-3 ovarian
# [47] = tested on: A549 NSCLC
# [48] = tested on: MDA-MB-231 breast
# [49] = tested on: M14 melanoma
# [50] = tested on: UO-31 renal
# [51] = tested on: NCI/ADR-RES ovarian
# [52] = tested on: HCC-2998 colon
# [53] = tested on: SK-MEL-5 melanoma
# [54] = tested on: 786-0 renal
# [55] = tested on: SNB-19 CNS
# [56] = tested on: SW-620 colon
# [57] = tested on: TK-10 renal
smiles,measurement,setting,value
COc1cc2nccc(Oc3ccc(NC(=O)NC4CC4)c(Cl)c3)c2cc1C(N)=O,GI50,[1],38.2 µM
same,TGI,[1],> 100 µM
same,GI50,[2],5.76 µM
same,TGI,[2],> 100 µM
same,GI50,[3],61.7 µM
same,TGI,[3],> 100 µM
same,GI50,[4],26.1 µM
same,TGI,[4],> 100 µM
same,GI50,[5],22 µM
same,TGI,[5],69.6 µM
same,GI50,[6],14.2 µM
same,TGI,[6],55.8 µM
same,GI50,[7],29.1 µM
same,TGI,[7],> 100 µM
same,GI50,[8],41 µM
same,TGI,[8],> 100 µM
same,GI50,[9],48.3 µM
same,TGI,[9],> 100 µM
same,GI50,[10],38.3 µM
same,TGI,[10],> 100 µM
same,GI50,[11],35.9 µM
same,TGI,[11],> 100 µM
same,GI50,[12],72.8 µM
same,TGI,[12],> 100 µM
same,GI50,[13],12.2 µM
same,TGI,[13],28 µM
same,GI50,[14],14.5 µM
same,TGI,[14],72.1 µM
same,GI50,[15],15.9 µM
same,TGI,[15],44.6 µM
same,GI50,[16],38.3 µM
same,TGI,[16],> 100 µM
same,GI50,[17],39.7 µM
same,TGI,[17],> 100 µM
same,GI50,[18],19.3 µM
same,TGI,[18],77.8 µM
same,GI50,[19],74.1 µM
same,TGI,[19],> 100 µM
same,GI50,[20],19.2 µM
same,TGI,[20],97.3 µM
same,GI50,[21],2.41 µM
same,TGI,[21],69.4 µM
same,GI50,[22],0.817 µM
same,TGI,[22],22.2 µM
same,GI50,[23],11.7 µM
same,TGI,[23],63 µM
same,GI50,[24],25.5 µM
same,TGI,[24],> 100 µM
same,GI50,[25],5.38 µM
same,TGI,[25],23.3 µM
same,GI50,[26],25.6 µM
same,TGI,[26],68.9 µM
same,GI50,[27],25.8 µM
same,TGI,[27],> 100 µM
same,GI50,[28],30.1 µM
same,TGI,[28],> 100 µM
same,GI50,[29],69.5 µM
same,TGI,[29],> 100 µM
same,GI50,[30],11.5 µM
same,TGI,[30],66.2 µM
same,GI50,[31],31.4 µM
same,TGI,[31],50.9 µM
same,GI50,[32],9.97 µM
same,TGI,[32],35.1 µM
same,GI50,[33],11.6 µM
same,TGI,[33],24.2 µM
same,GI50,[34],3.76 µM
same,TGI,[34],20.4 µM
same,GI50,[35],> 100 µM
same,TGI,[35],> 100 µM
same,GI50,[36],16.8 µM
same,TGI,[36],78.7 µM
same,GI50,[37],13.4 µM
same,TGI,[37],86.9 µM
same,GI50,[38],52.2 µM
same,TGI,[38],> 100 µM
same,GI50,[39],12.1 µM
same,TGI,[39],38.3 µM
same,GI50,[40],35.4 µM
same,TGI,[40],> 100 µM
same,GI50,[41],30.7 µM
same,TGI,[41],> 100 µM
same,GI50,[42],14.7 µM
same,TGI,[42],44.7 µM
same,GI50,[43],5.29 µM
same,TGI,[43],20.6 µM
same,GI50,[44],3.53 µM
same,TGI,[44],25.1 µM
same,GI50,[45],50 µM
same,TGI,[45],> 100 µM
same,GI50,[46],17.9 µM
same,TGI,[46],78 µM
same,GI50,[47],40 µM
same,TGI,[47],> 100 µM
same,GI50,[48],17.3 µM
same,TGI,[48],59.4 µM
same,GI50,[49],23.4 µM
same,TGI,[49],64.9 µM
same,GI50,[50],15.9 µM
same,TGI,[50],71.1 µM
same,GI50,[51],63.8 µM
same,TGI,[51],> 100 µM
same,GI50,[52],> 100 µM
same,TGI,[52],> 100 µM
same,GI50,[53],17.8 µM
same,TGI,[53],55.5 µM
same,GI50,[54],22.9 µM
same,TGI,[54],> 100 µM
same,GI50,[55],44.6 µM
same,TGI,[55],> 100 µM
same,GI50,[56],77.4 µM
same,TGI,[56],> 100 µM
same,GI50,[57],51.5 µM
same,TGI,[57],> 100 µM
Cc1ccc(NC(=O)c2ccc(CN3CCN(C)CC3)cc2)cc1Nc1nccc(-c2cccnc2)n1,GI50,[1],14.2 µM
same,TGI,[1],27.4 µM
same,GI50,[2],14.3 µM
same,TGI,[2],27.6 µM
same,GI50,[3],16 µM
same,TGI,[3],31.1 µM
same,GI50,[4],17.1 µM
same,TGI,[4],31.1 µM
same,GI50,[5],6.8 µM
same,TGI,[5],19 µM
same,GI50,[6],11.5 µM
same,TGI,[6],24.3 µM
same,GI50,[7],15.5 µM
same,TGI,[7],29.8 µM
same,GI50,[8],16.6 µM
same,TGI,[8],30.9 µM
same,GI50,[9],8.53 µM
same,TGI,[9],21.2 µM
same,GI50,[10],6.25 µM
same,TGI,[10],18.8 µM
same,GI50,[11],19.7 µM
same,TGI,[11],37.1 µM
same,GI50,[12],14.4 µM
same,TGI,[12],27.7 µM
same,GI50,[13],12.9 µM
same,TGI,[13],25.6 µM
same,GI50,[14],13.7 µM
same,TGI,[14],28.1 µM
same,GI50,[15],18.7 µM
same,TGI,[15],36.2 µM
same,GI50,[16],2.49 µM
same,TGI,[16],6.18 µM
same,GI50,[17],13.6 µM
same,TGI,[17],26.7 µM
same,GI50,[18],2.58 µM
same,TGI,[18],5.42 µM
same,GI50,[19],16.7 µM
same,TGI,[19],31.4 µM
same,GI50,[20],12.5 µM
same,TGI,[20],25.2 µM
same,GI50,[21],9.13 µM
same,TGI,[21],21.4 µM
same,GI50,[22],6.87 µM
same,TGI,[22],19.1 µM
same,GI50,[23],11.2 µM
same,TGI,[23],23.3 µM
same,GI50,[24],14.8 µM
same,TGI,[24],28.4 µM
same,GI50,[25],4.23 µM
same,TGI,[25],15.4 µM
same,GI50,[26],5.97 µM
same,TGI,[26],16 µM
same,GI50,[27],2.48 µM
same,TGI,[27],5.73 µM
same,GI50,[28],14.2 µM
same,TGI,[28],27.8 µM
same,GI50,[29],16.3 µM
same,TGI,[29],29.9 µM
same,GI50,[30],5.1 µM
same,TGI,[30],17.9 µM
same,GI50,[31],8.83 µM
same,TGI,[31],19.6 µM
same,GI50,[32],16.7 µM
same,TGI,[32],30.5 µM
same,GI50,[33],15.4 µM
same,TGI,[33],29 µM
same,GI50,[34],12.1 µM
same,TGI,[34],24.6 µM
same,GI50,[35],2.66 µM
same,TGI,[35],6.67 µM
same,GI50,[36],6.92 µM
same,TGI,[36],20 µM
same,GI50,[37],24.7 µM
same,TGI,[37],64.4 µM
same,GI50,[38],4.25 µM
same,TGI,[38],14.9 µM
same,GI50,[39],21.7 µM
same,TGI,[39],36.2 µM
same,GI50,[40],10.6 µM
same,TGI,[40],22.7 µM
same,GI50,[41],14.1 µM
same,TGI,[41],28 µM
same,GI50,[42],16.2 µM
same,TGI,[42],30.7 µM
same,GI50,[43],12 µM
same,TGI,[43],24.7 µM
same,GI50,[44],3.61 µM
same,TGI,[44],16.2 µM
same,GI50,[45],13.4 µM
same,TGI,[45],36.8 µM
same,GI50,[46],17.1 µM
same,TGI,[46],31.8 µM
same,GI50,[47],16.5 µM
same,TGI,[47],35.1 µM
same,GI50,[48],12.6 µM
same,TGI,[48],26.7 µM
same,GI50,[49],5.66 µM
same,TGI,[49],16.7 µM
same,GI50,[50],15.8 µM
same,TGI,[50],30.6 µM
same,GI50,[51],17.2 µM
same,TGI,[51],32.1 µM
same,GI50,[52],5.93 µM
same,TGI,[52],17.5 µM
same,GI50,[53],10.4 µM
same,TGI,[53],22.2 µM
same,GI50,[54],2.87 µM
same,TGI,[54],7.97 µM
same,GI50,[55],22.1 µM
same,TGI,[55],49.3 µM
same,GI50,[56],20.6 µM
same,TGI,[56],41.2 µM
same,GI50,[57],20.3 µM
same,TGI,[57],43.1 µM
